Experimental data: patent publication US12103920B2, “Cereblon binding compounds, compositions thereof, and methods of treatment therewith” (Celgene Corporation, priority 2020, dated 2024)
Counter-ions that a name gives are not always drawn.

Molecular target: T1, AR protein in VCaP cells (Homo sapiens, UniProt P10275)
T1 construct: endogenous in cells; host or cells: VCaP cells
T1 sequence (P10275 1-920): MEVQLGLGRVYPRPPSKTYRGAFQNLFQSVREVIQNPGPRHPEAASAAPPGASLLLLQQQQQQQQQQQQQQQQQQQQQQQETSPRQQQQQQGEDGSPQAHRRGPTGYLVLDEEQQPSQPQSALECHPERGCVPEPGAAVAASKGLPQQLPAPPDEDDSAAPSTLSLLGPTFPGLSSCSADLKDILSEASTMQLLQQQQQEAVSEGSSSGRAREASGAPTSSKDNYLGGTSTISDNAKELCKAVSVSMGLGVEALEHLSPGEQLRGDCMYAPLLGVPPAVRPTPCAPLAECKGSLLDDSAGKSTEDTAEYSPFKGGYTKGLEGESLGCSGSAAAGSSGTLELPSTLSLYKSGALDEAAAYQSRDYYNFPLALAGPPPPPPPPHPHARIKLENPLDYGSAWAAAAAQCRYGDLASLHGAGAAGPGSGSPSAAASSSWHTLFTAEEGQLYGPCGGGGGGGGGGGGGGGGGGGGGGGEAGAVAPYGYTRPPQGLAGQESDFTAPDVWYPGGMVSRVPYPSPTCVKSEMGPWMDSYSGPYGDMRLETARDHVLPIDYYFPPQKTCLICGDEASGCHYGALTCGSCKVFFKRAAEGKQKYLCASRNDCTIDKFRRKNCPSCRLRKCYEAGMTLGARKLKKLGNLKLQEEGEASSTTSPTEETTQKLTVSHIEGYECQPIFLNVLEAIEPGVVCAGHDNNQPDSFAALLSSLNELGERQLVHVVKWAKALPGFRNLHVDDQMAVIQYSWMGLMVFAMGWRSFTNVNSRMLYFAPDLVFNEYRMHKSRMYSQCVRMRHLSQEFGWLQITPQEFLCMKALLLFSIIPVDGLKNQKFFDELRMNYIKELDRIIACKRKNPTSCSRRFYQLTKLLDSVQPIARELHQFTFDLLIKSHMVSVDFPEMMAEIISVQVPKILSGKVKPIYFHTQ
Test: VCAP AR Degradation Assay
Assay type: cell-based
Settings: 24 h, AR ELISA; for DC50: concentration at 50% of DMSO control (50% AR degradation); for Y: lowest measured AR level normalized to DMSO control
Experimental: VCAP AR Degradation Assay. Test compounds were pre-dispensed into a Corning CellBind 96-well clear bottom plate (Cat #3300) using an acoustic dispenser to make a 10-point concentration series at 1:3 dilution for each compound. The final top concentration of each compound was 5 μM. DMSO at a final concentration of 0.1% was used as a control. VCaP cells cultured in DMEM with 8% fetal bovine serum (FBS) were seeded at 50K cells per well in a 200 μL volume into the compound plate and incubated at 37° C. in a CO2 incubator for 24 h. The medium was carefully removed from the cells and the plate was placed on ice. One hundred μL of ice-cold 1× cell lysis buffer from Cell Signaling Technologies (Cat #9803) was added to each well of the cells and the plate was incubated at 4° C. on a shaker for 1 h. Fifteen μL of cell lysate was used for AR ELISA detection using a PathScan Total Sandwich AR ELISA kit (Cell Signaling Technology, Cat #12580). AR levels in compound-treated wells were normalized to that of DMSO control and expressed as percent of control (PoC) (y). A Four Parameter Logistic Model (Sigmoidal Dose-Response Model) was used to determine the compound's DC50, and EC50, using the following equation: y=(A+((B−A)/(1+((C/x)^D)))) • A=YMin (lowest AR level normalized to DMSO control in response to compound treatment, as determined by curve fit) • B=YMax (maximum AR level as determined by curve fit) • C=EC50 • D=Hill Slope • x=compound concentration • EC50=the concentration of compound when y=(YMax−YMin)/2 • DC50=the concentration of the compound when y=50% of DMSO control (50% AR degradation) • y=AR protein level normalized to DMSO control
The lowest measured AR level normalized to DMSO control in response to compound treatment, termed Y value, was used to characterize the compound-mediated AR degradation efficiency.

## C[C@@H]1C[C@H](OCC[C@H]2CC[C@H](N3C(=S)N(c4cnc(C#N)c(C(F)(F)F)c4)C(=O)C3(C)C)CC2)C[C@H](C)N1CC(=O)Nc1cccc(NC2CCC(=O)NC2=O)c1 (stereo partly drawn) [Cmpd 35, 2-((2R,4r,6S)-4-(2-((trans)-4-(3-(6-Cyano-5-(trifluoromethyl)pyridin-3-yl)-5,5-dimethyl-4-oxo-2-thioxoimidazolidin-1-yl)cyclohexyl)ethoxy)-2,6-dimethylpiperidin-1-yl)-N-(3-((2,6-dioxopiperidin-3-yl)amino)phenyl)acetamide hydrochloride]
  DC50: 10 to 100 nM
  Y: * (0<Y≤15%)

## CC1(C)C(=O)N(c2ccc(C#N)c(C(F)(F)F)c2)C(=S)N1[C@H]1CC[C@H](OCCN2CCN(CC(=O)Nc3cc(F)cc(NC4CCC(=O)NC4=O)c3)[C@@H](C(F)(F)F)C2)CC1 (stereo partly drawn) [Cmpd 23, 2-((R)-4-(2-(((trans)-4-(3-(4-Cyano-3-(trifluoromethyl)phenyl)-5,5-dimethyl-4-oxo-2-thioxoimidazolidin-1-yl)cyclohexyl)oxy)ethyl)-2-(trifluoromethyl)piperazin-1-yl)-N-(3-((2,6-dioxopiperidin-3-yl)amino)-5-fluorophenyl)acetamide]
  DC50: 5 to 10 nM
  Y: * (0<Y≤15%)

## C[C@@H]1CN(CCC[C@H]2CC[C@H](N3C(=S)N(c4ccc(C#N)c(C(F)(F)F)c4)C(=O)C3(C)C)CC2)C[C@H](C)N1CC(=O)Nc1cccc(N[C@H]2CCC(=O)NC2=O)c1 [Cmpd 18, 2-((2R,6S)-4-(3-(trans-4-(3-(4-Cyano-3-(trifluoromethyl)phenyl)-5,5-dimethyl-4-oxo-2-thioxoimidazolidin-1-yl)cyclohexyl)propyl)-2,6-dimethylpiperazin-1-yl)-N-(3-(((S)-2,6-dioxopiperidin-3-yl)amino)phenyl)acetamide]
  DC50: 10 to 100 nM
  Y: ** (15%<Y≤20%)

## CC1(C)C(=O)N(c2ccc(C#N)c(C(F)(F)F)c2)C(=S)N1[C@H]1CC[C@H](OCCCN2CCN(CC(=O)Nc3cccc(NC4CCC(=O)NC4=O)c3)[C@@H](C(F)(F)F)C2)CC1 (stereo partly drawn) [Cmpd 30, 2-((R)-4-(3-(((trans)-4-(3-(4-Cyano-3-(trifluoromethyl)phenyl)-5,5-dimethyl-4-oxo-2-thioxoimidazolidin-1-yl)cyclohexyl)oxy)propyl)-2-(trifluoromethyl)piperazin-1-yl)-N-(3-((2,6-dioxopiperidin-3-yl)amino)phenyl)acetamide]
  DC50: 5 to 10 nM
  Y: * (0<Y≤15%)

## C[C@@H]1CN(CCC[C@H]2CC[C@H](N3C(=S)N(c4ccc(C#N)c(Cl)c4)C(=O)C3(C)C)CC2)C[C@H](C)N1CC(=O)Nc1cccc(NC2CCC(=O)NC2=O)c1 (stereo partly drawn) [Cmpd 14, 2-((2S,6R)-4-(3-(trans-4-(3-(3-Chloro-4-cyanophenyl)-5,5-dimethyl-4-oxo-2-thioxoimidazolidin-1-yl)cyclohexyl)propyl)-2,6-dimethylpiperazin-1-yl)-N-(3-((2,6-dioxopiperidin-3-yl)amino)phenyl)acetamide hydrochloride]
  DC50: 10 to 100 nM
  Y: *** (25%<Y<50%)

## CC1(C)C(=O)N(c2ccc(C#N)c(C(F)(F)F)c2)C(=S)N1[C@H]1CC[C@H](OCCN2CCN(CC(=O)Nc3cc(C#N)cc(NC4CCC(=O)NC4=O)c3)[C@@H](C(F)(F)F)C2)CC1 (stereo partly drawn) [Cmpd 34, 2-((R)-4-(2-(((trans)-4-(3-(4-Cyano-3-(trifluoromethyl)phenyl)-5,5-dimethyl-4-oxo-2-thioxoimidazolidin-1-yl)cyclohexyl)oxy)ethyl)-2-(trifluoromethyl)piperazin-1-yl)-N-(3-cyano-5-((2,6-dioxopiperidin-3-yl)amino)phenyl)acetamide]
  DC50: 5 to 10 nM
  Y: *** (25%<Y<50%)

## CC1(C)C(=O)N(c2ccc(C#N)c(C(F)(F)F)c2)C(=S)N1[C@H]1CC[C@H](OCCC2CCN(CC(=O)Nc3cccc(NC4CCC(=O)NC4=O)c3)CC2(F)F)CC1 (stereo partly drawn) [Cmpd 44, 2-(4-(2-(((trans)-4-(3-(4-Cyano-3-(trifluoromethyl)phenyl)-5,5-dimethyl-4-oxo-2-thioxoimidazolidin-1-yl)cyclohexyl)oxy)ethyl)-3,3-difluoropiperidin-1-yl)-N-(3-((2,6-dioxopiperidin-3-yl)amino)phenyl)acetamide]
  DC50: 5 to 10 nM
  Y: * (0<Y≤15%)

## C[C@@H]1CN(CCCO[C@H]2CC[C@H](N3C(=S)N(c4ccc(C#N)c(C(F)(F)F)c4)C(=O)C3(C)C)CC2)C[C@H](C)N1CC(=O)Nc1cccc(NC2CCC(=O)NC2=O)c1 (stereo partly drawn) [Cmpd 12, 2-((2R,6S)-4-(3-((trans-4-(3-(4-Cyano-3-(trifluoromethyl)phenyl)-5,5-dimethyl-4-oxo-2-thioxoimidazolidin-1-yl)cyclohexyl)oxy)propyl)-2,6-dimethylpiperazin-1-yl)-N-(3-((2,6-dioxopiperidin-3-yl)amino)phenyl)acetamide hydrochloride]
  DC50: 5 to 10 nM
  Y: *** (25%<Y<50%)

## C[C@@H]1CN(CCO[C@H]2CC[C@H](N3C(=S)N(c4ccc(C#N)c(C(F)(F)F)c4)C(=O)C3(C)C)CC2)C[C@H](C)N1CC(=O)Nc1cccc(N[C@@H]2CCC(=O)NC2=O)c1 [Cmpd 3, 2-((2R,6S)-4-(2-((trans-4-(3-(4-Cyano-3-(trifluoromethyl)phenyl)-5,5-dimethyl-4-oxo-2-thioxoimidazolidin-1-yl)cyclohexyl)oxy)ethyl)-2,6-dimethylpiperazin-1-yl)-N-(3-(((R)-2,6-dioxopiperidin-3-yl)amino)phenyl)acetamide hydrochloride]
  DC50: 5 to 10 nM
  Y: *** (25%<Y<50%)

## C[C@@H]1CN(CCO[C@H]2CC[C@H](N3C(=S)N(c4ccc(C#N)c(Cl)c4)C(=O)C3(C)C)CC2)C[C@H](C)N1CC(=O)Nc1cccc(NC2CCC(=O)NC2=O)c1 (stereo partly drawn) [Cmpd 4, 2-((2R,6S)-4-(2-((trans-4-(3-(3-Chloro-4-cyanophenyl)-5,5-dimethyl-4-oxo-2-thioxoimidazolidin-1-yl)cyclohexyl)oxy)ethyl)-2,6-dimethylpiperazin-1-yl)-N-(3-((2,6-dioxopiperidin-3-yl)amino)phenyl)acetamide hydrochloride]
  DC50: ≤ 5 nM
  Y: ** (15%<Y≤20%)

## C[C@@H]1C[C@H](OCCO[C@H]2CC[C@H](N3C(=S)N(c4cnc(C#N)c(C(F)(F)F)c4)C(=O)C3(C)C)CC2)C[C@H](C)N1CC(=O)Nc1cccc(NC2CCC(=O)NC2=O)c1 (stereo partly drawn) [Cmpd 45, 2-((2R,4r,6S)-4-(2-(((trans)-4-(3-(6-Cyano-5-(trifluoromethyl)pyridin-3-yl)-5,5-dimethyl-4-oxo-2-thioxoimidazolidin-1-yl)cyclohexyl)oxy)ethoxy)-2,6-dimethylpiperidin-1-yl)-N-(3-((2,6-dioxopiperidin-3-yl)amino)phenyl)acetamide]
  DC50: ≤ 5 nM
  Y: ** (15%<Y≤20%)

## C[C@@H]1CN(CCO[C@H]2CC[C@H](N3C(=S)N(c4cnc(C#N)c(C(F)(F)F)c4)C(=O)C3(C)C)CC2)C[C@H](C)N1CC(=O)Nc1cccc(N[C@@H]2CCC(=O)NC2=O)c1 [Cmpd 48, 2-((2R,6S)-4-(2-(((trans)-4-(3-(6-Cyano-5-(trifluoromethyl)pyridin-3-yl)-5,5-dimethyl-4-oxo-2-thioxoimidazolidin-1-yl)cyclohexyl)oxy)ethyl)-2,6-dimethylpiperazin-1-yl)-N-(3-(((R)-2,6-dioxopiperidin-3-yl)amino)phenyl)acetamide]
  DC50: < 1000 nM
  Y: * (0<Y≤15%)
